Series [1] has as its target T1, AaDOP2 (Aedes aegypti, UniProt H6D5H2).
Series [2] relates to adult Reticulitermes flavipes. Kind of series: Termite immersion assay. The class given is in vivo. To be noted: Reticulitermes flavipes, immersion, adult termite; for mortality at 100 µM: 100 µM compound (Fipronil 500 μM); for mortality at 100000 µM: 100 mM compound (Fipronil 500 μM). The text has this: A series of whole organism bioassays was developed to further evaluate the toxicity of chemistries to a range of agricultural, veterinary and public health pests and non-target insects (Tables 12 and 13). These assays are designed to rapidly explore the biological activity spectrum of chemistries as well as to facilitate initial investigations of the mode of action of insecticidal compounds. Briefly, assays were developed for the German cockroach (Blatella germanica, urban pest), termite (Reticulitermes flavipes; urban pest), lone star tick (Amblyomma americana; veterinary and public health pest), soybean aphid (Aphis glycines, agricultural pest) and honeybee (Apis mellifera; beneficial, non-target insect). The assays were designed to test the toxicity and speed of kill of multiple chemistries on contact. Each of these assays was performed as a single point dose experiment in triplicate using either topical application of compound to the ventral thorax (1 μl of a […] compound solution in 1:1 v:v DMSO:EtOH vehicle; 50-80 μg effective dose depending on compound) as is the case for our cockroach and honeybee assays, or 10 second immersion in a solution of the compound diluted in water or DMSO:[…] The assays were conducted in 24-well plate format with mortality assessment following incubation at 22° C. as described above. Commercial insecticides were incorporated in these assays to provide a positive control and permit initial comparative analyses. Lead chemistries identified in our in vivo screen have been evaluated in the cockroach and termite assays.

For series [3], the target named is T1, AaDOP2. Kind of series: HTRF cAMP accumulation concentration response assay (Cisbio Dynamic 2). It counts as cell-based.
Series [4] deals with T2, Isdop1 (Ixodes scapularis, UniProt A0ACM8FJJ0). Kind of series: cAMP accumulation confirmation assay, cells stably expressing Isdop1. The class given is cell-based.
The target of series [5] is T3, Isdop2 (Ixodes scapularis, UniProt A0ACM8DGL0). Kind of series: cAMP accumulation confirmation assay, cells stably expressing Isdop2. It counts as cell-based.
The subject of series [6] is Ae. aegypti larvae. Nature of the series: whole plant or invertebrate. The class given is in vivo. To be noted: Aedes aegypti; 400 μM, L4 larvae, 24 hours post-treatment; read-out: average larval mortality. Here is the method: Single dose-point and dose response in vivo mosquito bioassays were used to assess the toxicity of selected AaDop2 receptor antagonists identified in the chemical screen. Larvae of Ae. aegypti (Liverpool strain) were reared under standard laboratory conditions on a 12 hr day/night cycle at 75% RH and 28° C., and bioassays were conducted at room temperature (22-24° C.). Larvae were transferred from standard rearing trays into six-well tissue culture plates (Corning, Inc. Corning, N.Y.) using a small plastic pipette. Ten L4-stage larvae were included per well, each containing five ml of de-ionized water and an assigned drug concentration. Controls were conducted similarly but lacked a drug treatment. Bioassays employed a double-blind experimental design, and larval mortality was scored 24 hr following administration of drugs. Single dose-point assays were conducted using 400 μM drug and included three biological replicates each consisting of 100 larvae.

In series [7] the test system is Ae. aegypti L3 larvae. Kind of series: whole plant or invertebrate. To be noted: Aedes aegypti.
In series [8] the target is T4, human D1 dopamine receptor (hD1) (Homo sapiens, UniProt P21728).
T4 construct: expressed in transfected cells
Kind of series: cAMP accumulation secondary assay, hD1-expressing cells. It counts as cell-based, H. sapiens.

Series [9] deals with adult male Blatella germanica. Nature of the series: Cockroach contact assay (topical application). To be noted: 200 mM compound. The class given is in vivo. The essentials: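 Adult male German cockroaches (Blatella germanica) were dosed by topical application of compound to the ventral thorax, giving an effective dose of 50-80 μg depending on compound. Each test was a single-point dose run in triplicate in 24-well plates. Insects were incubated at 22° C. and scored for mortality, with commercial insecticides included as positive controls.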

Series [10] has as its system adult male Blatella germanica. Kind of series: Cockroach assay of Table 16 (title contact assay, text feeding assay). It counts as in vivo. To be noted: 200 mM compound.
The subject of series [11] is Ae. aegypti L3 larvae. Nature of the series: Ae. aegypti L3 concentration response and time course assays. It counts as in vivo, Aedes aegypti. To be noted: Aedes aegypti. On the procedure:
Briefly, chemistries were diluted to appropriate concentration in water and added to the wells of 24-well plates containing 5 L3 stage Ae. aegypti larvae to achieve a final concentration of 400, 200, 100, 50 and 25 μM in 1 ml sterile RO water. Chemistries were tested in quadruplicate at each concentration. […] Results reported here represent a minimum of three independent CRC experiments (i.e., n=3).

Series [12] concerns the target T3, Isdop2. Nature of the series: cell-based. To be noted: read-out: % Inhibition (of response to dopamine), Isdop2 screen.
Series [13] deals with T1, AaDOP2. Nature of the series: LOPAC1280 antagonist screen in HEK-CRELuc-Aadop2 cells. It counts as cell-based. To be noted: 10 μM compound, 300 nM dopamine, quadruplicate.
Series [14] addresses T2, Isdop1. Nature of the series: CRE-Luc reporter assay, HEK cells stably expressing Isdop1. It counts as cell-based.
Series [15] deals with T1, AaDOP2. To be noted: single dose 10 μM, transient expression, n=3.
Series [16] concerns the target T5, AaDOP1 (Aedes aegypti, UniProt H6D5H1). To be noted: single dose 10 μM, transient expression, n=3.
For series [17], the target named is T3, Isdop2. Kind of series: CRE-Luc reporter assay, HEK cells stably expressing Isdop2. The class given is cell-based.
The target in series [18] is T5, AaDOP1. Nature of the series: CRELuc reporter dose-response in HEK293 cells stably expressing AaDOP1. It counts as cell-based. To be noted: HEK293 cells stably expressing CRELuc reporter and AaDOP1.
For series [19], the system named is Ae. aegypti L3 larvae. To be noted: 400 μM, three independent experiments.
For series [20], the target named is T1, AaDOP2. Kind of series: cell-based.
[21] abbreviates: 48 h, read-out: Toxicity to Aedes aegypti larvae (mortality) 48 hours, 400 μM, L3 larvae, three independent experiments.
Where [22] appears, read: 72 h, read-out: Toxicity to Aedes aegypti larvae (mortality) 72 hours, 400 μM, L3 larvae, three independent experiments.

Where two headings read alike, the source gives them in different places. A value given as a limit tells only on which side of the number the result lay.

T3 sequence (A0ACM8DGL0 entry or part of it): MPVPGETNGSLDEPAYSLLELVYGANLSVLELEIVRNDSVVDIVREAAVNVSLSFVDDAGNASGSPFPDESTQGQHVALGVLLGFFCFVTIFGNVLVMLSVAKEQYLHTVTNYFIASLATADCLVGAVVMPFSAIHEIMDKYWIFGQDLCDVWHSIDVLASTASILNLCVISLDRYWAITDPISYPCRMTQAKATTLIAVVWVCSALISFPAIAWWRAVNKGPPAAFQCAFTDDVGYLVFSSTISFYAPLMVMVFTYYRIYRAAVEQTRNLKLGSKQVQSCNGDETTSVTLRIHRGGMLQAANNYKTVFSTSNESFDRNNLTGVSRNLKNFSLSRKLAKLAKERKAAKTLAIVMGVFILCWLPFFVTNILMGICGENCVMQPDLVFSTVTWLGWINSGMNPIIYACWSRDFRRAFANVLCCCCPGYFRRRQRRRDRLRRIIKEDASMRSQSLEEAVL
T1 sequence (H6D5H2 entry or part of it): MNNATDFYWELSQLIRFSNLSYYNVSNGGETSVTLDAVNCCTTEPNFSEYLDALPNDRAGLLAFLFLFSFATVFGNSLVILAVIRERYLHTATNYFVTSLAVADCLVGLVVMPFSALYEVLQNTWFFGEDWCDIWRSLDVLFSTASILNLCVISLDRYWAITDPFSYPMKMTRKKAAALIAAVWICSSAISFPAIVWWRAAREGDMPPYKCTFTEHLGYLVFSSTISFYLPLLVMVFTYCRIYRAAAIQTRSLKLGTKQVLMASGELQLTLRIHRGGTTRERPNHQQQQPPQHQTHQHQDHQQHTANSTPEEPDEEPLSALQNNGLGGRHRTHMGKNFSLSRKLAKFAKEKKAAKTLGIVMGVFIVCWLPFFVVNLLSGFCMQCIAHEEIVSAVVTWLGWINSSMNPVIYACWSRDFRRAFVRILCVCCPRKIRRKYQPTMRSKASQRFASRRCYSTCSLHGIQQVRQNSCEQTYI
T4 sequence (P21728 whole entry): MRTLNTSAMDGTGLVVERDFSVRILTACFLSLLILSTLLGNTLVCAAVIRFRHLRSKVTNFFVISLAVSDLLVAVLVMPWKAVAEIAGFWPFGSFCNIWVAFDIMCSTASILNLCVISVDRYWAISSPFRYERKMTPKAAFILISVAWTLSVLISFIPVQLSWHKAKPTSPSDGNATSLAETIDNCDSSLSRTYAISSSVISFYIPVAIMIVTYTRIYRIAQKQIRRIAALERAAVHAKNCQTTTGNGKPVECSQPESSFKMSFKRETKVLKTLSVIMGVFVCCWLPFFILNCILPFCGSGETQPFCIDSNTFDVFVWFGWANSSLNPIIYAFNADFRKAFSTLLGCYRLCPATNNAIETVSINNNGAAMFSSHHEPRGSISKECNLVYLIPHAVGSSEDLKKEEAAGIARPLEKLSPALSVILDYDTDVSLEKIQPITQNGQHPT
T5 sequence (H6D5H1 entry or part of it): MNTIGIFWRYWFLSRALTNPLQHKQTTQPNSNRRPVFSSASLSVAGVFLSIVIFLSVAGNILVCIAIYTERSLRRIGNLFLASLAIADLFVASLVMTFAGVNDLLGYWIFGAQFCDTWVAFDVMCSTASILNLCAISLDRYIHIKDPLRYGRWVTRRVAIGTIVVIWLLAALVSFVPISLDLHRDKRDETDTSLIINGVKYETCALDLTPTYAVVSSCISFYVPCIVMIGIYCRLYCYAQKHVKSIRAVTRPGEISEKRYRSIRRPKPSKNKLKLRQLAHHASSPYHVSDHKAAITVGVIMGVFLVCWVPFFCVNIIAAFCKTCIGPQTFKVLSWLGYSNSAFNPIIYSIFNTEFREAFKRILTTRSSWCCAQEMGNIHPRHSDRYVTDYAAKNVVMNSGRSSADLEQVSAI

Regarding `CN(C)CCC=C1c2ccccc2CCc2ccccc21` [Amitriptyline, (3-(10,11-dihydro-5H-dibenzo[a,d][7]annulen-5-ylidene)-N,N-dimethylpropan-1-amine)], the “Relative fold selectivity for AaDOP2 vs. hD1” value in [1] (ratio of IC50 values hD1/AaDOP2) was found to be 36 fold. Besides, the IC50 was found to be 0.014 µM in series [1] (read-out: Affinity (Aedesdop2), values equal the Table 3 IC50 values); 6.5 ± 0.92 nM in series [3] (AaDOP2 expressing cells in the presence of dopamine, No Inhibition = <10% inhibition at 3 μM test compound, read-out: IC50 ± S.E.M. (nM), HTRF cAMP assay); 7 nM in [3] (Avg IC50 (μM), in vitro Concentration Response Curve assay, n = 2, relative to control antagonist Amitriptyline); 77 µM in series [4]; 2.9 µM in [5]; 0.47 ± 0.049 µM in [8] (read-out: IC50 value (at 100 nM dopamine for hD1), 100 nM dopamine, direct cAMP accumulation). The mortality at 100 µM came out at 40% in series [2] (24 h, read-out: % Mortality 24 hrs) and 70% in series [2] (240 h, read-out: % Mortality 240 hrs). Moreover, the mortality at 100000 µM in series [2] (48 h, read-out: % Mortality 48 hrs) worked out at 40%; in [2] (72 h, read-out: % Mortality 72 hrs) it was 60%; in series [2] (120 h, read-out: % Mortality 120 hrs), 70%. In addition, the mortality at 400 µM in [6] is 93%; in series [7] (24 h, read-out: Toxicity to Aedes aegypti larvae (mortality) 24 hours, 400 μM, L3 larvae, three independent experiments), 63%; in [7] (setting [21]) it was 87%; in series [7] (setting [22]), 93%. Further, the figures for the “% Mortality 24 hrs” value in series [9] and in [10] were 5% and 3%, respectively. The “% Mortality 48 hrs” value in [9] and in series [10] was 20% each time. Further, the results for the “% Mortality 72 hrs” value in [9] and in series [10] were 25% and 23%, respectively. The “% Mortality 120 hrs” value in series [9] and in series [10] was 30% each time. The “% Mortality 240 hrs” value in [9] is on record as 35%. Moreover, the LC50 in [11] came out at 78 µM. Moreover, in series [12], the inhibition at 10 µM is 87%. Besides, the “% of the SCH23390 effect” value in series [13] came to 90%.

For `NCCc1ccc(O)c(O)c1` [Dopamine], the half-maximal effective concentration (EC50) is roughly 0.031 µM in series [14], roughly 0.145 µM in [17] and 0.0031 ± 0.0011 µM in series [18]. In series [15], the “increase of intracellular cAMP, AaDOP2” value is 48±14 fold. Further, the “increase of intracellular cAMP, AaDOP1” value in series [16] was determined as 2.7±0.6 fold.

Consider `CSc1ccc2c(c1)C(N1CCN(C)CC1)Cc1ccccc1S2` (centres unmarked) [Methiothepin, (1-methyl-4-(8-(methylthio)-10,11-dihydrodibenzo-[b,f]thiepin-10-yl)piperazines)], for which, in [19], the “Toxicity to Aedes aegypti larvae (mortality) 24 hours” value is 100%. The “Relative fold selectivity for AaDOP2 vs. hD1” value in series [1] stood at 5.7 fold. Further, the IC50 in [4] turned out to be 0.95 µM; in series [5] it was 0.085 µM; in series [20] it was 0.014 ± 0.0051 µM; in series [8], 0.08 ± 0.011 µM. In addition, the mortality at 400 µM is 10% in series [7] (0.5 h, read-out: percent mortality 0.5 hr, 400 uM, L3 larvae, value for this scoring time); 0% in [7] (1 h, read-out: percent mortality 1 hr, 400 uM, L3 larvae, per scoring time); 20% in series [7] (2 h, read-out: percent mortality 2 hr, 400 uM, L3 larvae, per scoring time); greater than 70% in series [7] (3 h, read-out: mortality within three hours, 400 μM, L3 larvae); 0% in series [7] (3 h, read-out: percent mortality 3 hr, 400 uM, L3 larvae, per scoring time); 0% in series [7] (4 h, read-out: percent mortality 4 hr, 400 uM, L3 larvae, per scoring time). In addition, the mortality at 400 µM was determined as 0% in [7] (24 h, read-out: percent mortality 24 hr, 400 uM, L3 larvae, per scoring time); 100% in [7] (setting [21]); 0% in series [7] (48 h, read-out: percent mortality 48 hr, 400 uM, L3 larvae, per scoring time); 100% in series [7] (72 h, read-out: Cumulative % Mortality (72 hrs), 400 uM, L3 larvae); 100% in series [7] (setting [22]); 0% in series [7] (72 h, read-out: percent mortality 72 hr, 400 uM, L3 larvae, per scoring time). In addition, the inhibition at 10 µM in series [12] was 100%. Besides, the “% of the SCH23390 effect” value in series [13] is recorded as 99%.

In the case of `Oc1ccc(C=Cc2cc(O)cc(O)c2)cc1` [Resveratrol], the IC50 in [20] was no less than 10 µM. Besides, the inhibition at 10 µM in [12] came to 100%. Also, the “% of the SCH23390 effect” value in series [13] turned out to be 89%.

These data come from patent US20140350081A1, “INSECT G-COUPLED RECEPTORS USEFUL AS TARGETS FOR INSECTICIDES AND COMPOUNDS AND REAGENTS IDENTIFIED USING THE SAME” (priority 2011, published 2014).
